Test results published in patent EP4778519A1, “THERAPEUTIC OR PROPHYLACTIC AGENT FOR FRONTOTEMPORAL LOBAR DEGENERATION ACCOMPANIED BY ACCUMULATION OF TDP-43 (FTLD-TDP)” (Socium Inc., priority 2023, dated 2025).
“Also recorded” adds a separate entry of the source. Like-named read-outs stand apart in the source and are kept apart here.

Experiments:
[1] = tested on: Neuro2a cells transfected with the TDP-43 gene; assay: Inhibition of cell death in neuron-differentiated Neuro2a cells transfected with the TDP-43 gene (Example 1); assay type: cell-based, Mouse; settings: evaluated 7 days after transfection, Figures 3 and 4
Method: Mouse neuroblastoma (Neuro2a) cells were seeded on a dish. The Neuro2a cells were cultured in a culture medium containing DMEM+10% FBS at 37°C in the presence of 5% CO2. On the first day after seeding, differentiation into neurons was initiated. Differentiation into neurons was performed in a culture medium containing DMEM+2% FBS+20 µmol/L retinoic acid. On the fourth day after seeding, cells were transfected with synthesized TDP-43 mRNA by a lipofection method. Cells were sampled at 6 hours, 9 hours, 12 hours, 15 hours, 18 hours, and 21 hours after transfection. […] For sampling, cells were lysed in an RIPA buffer and centrifuged at 22,000xg for 30 minutes at 4°C, the supernatant was used as the soluble fraction, the precipitate was used as the insoluble fraction, and equal volumes of a 2×SDS sample buffer were added to the respective fractions and heated at 95°C for 5 minutes to prepare electrophoresis samples. The electrophoresis samples were subjected to electrophoresis using a polyacrylamide gel, TDP-43 was then transferred to a PVDF membrane. TDP-43 was detected through chemiluminescence using anti-TDP-43 antibodies as primary antibodies and HRP-conjugated anti-rabbit antibodies as secondary antibodies. […] The insoluble fractions of TDP-43 indicate the aggregation of TDP-43. […]
The proportion of dead cells was evaluated 7 days after the cells were transfected with the TDP-43 gene.

TDP-43 [2] = assay: Soluble and insoluble fractions of TDP-43 in TDP-43-transfected Neuro2a cells, Western blot (Example 2); assay type: cell-based, Mouse; settings: 10 µmol/L added 6 hours after transfection, cultured for 12 hours; for soluble fractions versus insoluble fractions of TDP-43: Figure 5; for proportion of insoluble fractions based on a total number of soluble fractions and insoluble fractions of TDP-43: Figure 6
Method: Mouse neuroblastoma (Neuro2a) cells were seeded on a dish. The Neuro2a cells were cultured in a culture medium containing DMEM+10% FBS at 37°C in the presence of 5% CO2. On the first day after seeding, differentiation into neurons was initiated. Differentiation into neurons was performed in a culture medium containing DMEM+2% FBS+20 µmol/L retinoic acid. On the fourth day after seeding, cells were transfected with synthesized TDP-43 mRNA by a lipofection method. Cells were sampled at 6 hours, 9 hours, 12 hours, 15 hours, 18 hours, and 21 hours after transfection. […] For sampling, cells were lysed in an RIPA buffer and centrifuged at 22,000xg for 30 minutes at 4°C, the supernatant was used as the soluble fraction, the precipitate was used as the insoluble fraction, and equal volumes of a 2×SDS sample buffer were added to the respective fractions and heated at 95°C for 5 minutes to prepare electrophoresis samples. The electrophoresis samples were subjected to electrophoresis using a polyacrylamide gel, TDP-43 was then transferred to a PVDF membrane. TDP-43 was detected through chemiluminescence using anti-TDP-43 antibodies as primary antibodies and HRP-conjugated anti-rabbit antibodies as secondary antibodies. […] The insoluble fractions of TDP-43 indicate the aggregation of TDP-43.
Neuro2a cells were seeded on a dish. On the first day after seeding, differentiation into neurons was initiated. On the fourth day after seeding, cells were transfected with the TDP-43 gene.

TDP-43 [3] = assay: Soluble and insoluble fractions of TDP-43 in motor neurons derived from iPS cells of ALS patients, Western blot (Example 3); assay type: cell-based, human; settings: 10 µmol/L, cultured for 20 days; for bands for insoluble fractions of TDP-43: Figure 7; for average proportion of insoluble fractions of TDP-43: three experiments, Figure 8
TDP-43 [4] = assay: Soluble and insoluble fractions of TDP-43 in motor neurons derived from iPS cells of healthy subjects, Western blot (Example 3); assay type: cell-based, human; settings: 10 µmol/L, cultured for 20 days, Figure 7
Method: 100 µL of an EHS-gel basement membrane matrix (commercially available from FUJIFILM Wako Pure Chemical Corporation) was added to 12.5 mL of DMEM (Dulbecco's Modified Eagle Medium, commercially available from FUJIFILM Wako Pure Chemical Corporation) and mixed, and the mixture was added to a 24-well plate at 600 µL per well. The plate was left at room temperature for 2 hours, and the solution was then removed from the wells. Next, 600 µL of DMEM was added to each well, and the plate was left at room temperature for 2 hours.
Motor neurons derived from iPS cells of healthy subjects and motor neurons derived from iPS cells of ALS patients were obtained from iXCells Biotechnologies. The motor neurons were quickly thawed in a thermostatic oven at 37°C and suspended in a motor neuron maintenance culture medium (iXCells Biotechnologies). […]
The soluble protein fractions and the insoluble protein fractions were subjected to SDS-PAGE, and the proteins were transferred to a PVDF membrane. […] Next, the PVDF membrane was washed three times with a buffer solution, 1 mL of a luminescence reagent (ImmunoStar LD, commercially available from FUJIFILM Wako Pure Chemical Corporation) was then used to induce luminescence from the labeled secondary antibodies, and the PVDF membrane was imaged.

[5] = Reported human pharmacokinetics of D-cycloserine (literature); assay type: in vivo, humans; settings: estimated; 15 mg orally administered twice daily
[6] = cited from earlier work
[7] = cited from earlier work; remark: listed apart in the source

In the case of `N[C@@H]1CONC1=O` [D-cycloserine, (4R)-4-Amino-1,2-oxazolidin-3-one], the “effect of inhibiting cell death” value [1] is reported as “cell death was inhibited; also recorded: exhibited an effect of inhibiting cell death in a concentration-dependent manner”, the “soluble fractions versus insoluble fractions of TDP-43” value (TDP-43 [2]) is reported as “the number of soluble fractions of TDP-43 was larger than the number of insoluble fractions of TDP-43” and the “proportion of insoluble fractions based on a total number of soluble fractions and insoluble fractions of TDP-43” value (TDP-43 [2]) is reported as “less than half”. For the same molecule, the “bands for insoluble fractions of TDP-43” value (TDP-43 [3]) was “bands for insoluble fractions were unclear”, the “average proportion of insoluble fractions of TDP-43” value (TDP-43 [3]) was “about 17.4%” and the “bands for insoluble fractions of TDP-43” value (TDP-43 [4]) was “bands for insoluble fractions were unclear”. The trough value [5] was greater than 128 nmol/L, the Cmax ([6]; 15 mg orally administered to humans, read-out: maximum blood concentration (Cmax)) was roughly 5.6 µM and the half-life ([6]; in vivo) was “about 10 hours”. For the same molecule, the side effects ([7]; 150 mg administered to humans) was “headaches” and the side effects ([7]; 250 mg administered to humans to treat tuberculosis) was “serious side effects such as epileptiform seizure and mental confusion”.

With `N[C@H]1CONC1=O` [L-cycloserine, (4S)-4-amino-1,2-oxazolidin-3-one] the “effect of inhibiting cell death” value [1] was “exhibited an effect of inhibiting cell death in a concentration-dependent manner”, the “soluble fractions versus insoluble fractions of TDP-43” value (TDP-43 [2]) was “the number of soluble fractions of TDP-43 was larger than the number of insoluble fractions of TDP-43” and the “proportion of insoluble fractions based on a total number of soluble fractions and insoluble fractions of TDP-43” value (TDP-43 [2]) was “less than half”.

In the case of `CCCN(CCC)CCc1cccc2c1CC(=O)N2` [ropinirole], the “bands for insoluble fractions of TDP-43” value (TDP-43 [3]) is reported as “bands for insoluble fractions were unclear”, the “average proportion of insoluble fractions of TDP-43” value (TDP-43 [3]) is reported as “about 19.3%” and the “bands for insoluble fractions of TDP-43” value (TDP-43 [4]) is reported as “bands for insoluble fractions were unclear”.
